ED50 and pKB data for 15 compounds are collected here from ChEMBL document CHEMBL1146672, “Discovery and SAR development of 2-(phenylamino) imidazolines as prostacyclin receptor antagonists [corrected]” (Bioorg Med Chem Lett, 2004).

Each structure is given as a SMILES string.

The subject of one assay is Rattus norvegicus. The assay can be described thus: Effective dose was determined against carrageenan-induced paw hyperalgesia in the rat on i.v. administration. It counts as functional. Particulars: iv.
The compound `CC(C)Oc1ccc(Cc2ccc(NC3=NCCN3)cc2)cc1` returned an ED50 of 2.8 mg/kg.

For a further assay, the system named is Rattus norvegicus. The assay can be described thus: Effective dose was determined against carrageenan-induced paw hyperalgesia in the rat on peroral administration. It counts as functional. The settings on record: po.
As for `CC(C)Oc1ccc(Cc2ccc(NC3=NCCN3)cc2)cc1`, the ED50 stood at 18 mg/kg.

The next assay has as its system Rattus norvegicus. The assay can be described thus: Effective dose was determined for analgesic activity in rat on i.p. administration using acetic acid induced writhing assay. It counts as functional. Particulars: ip.
With `CC(C)Oc1ccc(Cc2ccc(NC3=NCCN3)cc2)cc1`, the ED50 came out at 4 mg/kg.

The next assay relates to SH-SY5Y. The assay is described as follows: Compound was tested for antagonism of carbaprostacyclin-stimulated cAMP accumulation in human SH-SY5Y neuroblastoma cells. It counts as functional.
Conditions: not given
Take `CCOc1ccc(Cc2ccc(NC3=NCCN3)cc2)cc1`: the pKB is 8.2. Still for that read-out and setting: under `COCCOc1ccc(Cc2ccc(NC3=NCCN3)cc2)cc1` stands 8. `CC(C)Oc1ccc(Cc2ccc(NC3=NCCN3)cc2)cc1` gave a pKB of 8.8. For the compound `c1cc(NC2=NCCN2)ccc1Cc1ccc(OC2CCOCC2)cc1`, the pKB was determined as 8.4. The compound `c1cc(NC2=NCCN2)ccc1Cc1ccc(OC2CCCCC2)cc1` displayed a pKB of 8.6. Still for that read-out and setting: then `c1cc(NC2=NCCN2)ccc1Cc1ccc(OC2CCCC2)cc1`, with 8.9; and `CC(C)COc1ccc(Cc2ccc(NC3=NCCN3)cc2)cc1`, with 8.8; and `CCCOc1ccc(Cc2ccc(NC3=NCCN3)cc2)cc1`, with 8.8. In the case of `CCCCCCOc1ccc(Cc2ccc(NC3=NCCN3)cc2)cc1`, the pKB worked out at 8.2. `OCCOc1ccc(Cc2ccc(NC3=NCCN3)cc2)cc1` had a pKB of 8. Same read-out and setting: then `FC(F)(F)COc1ccc(Cc2ccc(NC3=NCCN3)cc2)cc1`, with 8.7; and `c1cc(NC2=NCCN2)ccc1Cc1ccc(OCC2CCOCC2)cc1`, with 8.5; and `c1ccc(COc2ccc(Cc3ccc(NC4=NCCN4)cc3)cc2)cc1`, with 7.7. Same read-out and setting: then `COc1ccc(Cc2ccc(NC3=NCCN3)cc2)cc1`, with 7.7; and `CCCCOc1ccc(Cc2ccc(NC3=NCCN3)cc2)cc1`, with 9.
